Data published in the NIST ThermoML archive (doi:10.1016/j.fluid.2015.03.015).

Experiment: refractive index (other wavelength) (dimensionless)
Details: 85 kPa, Liquid, Wavelength=632.8 nm, Minimum Deviation

CCCCCCCC[n+]1ccn(C)c1.F[B-](F)(F)F [1-methyl-3-octylimidazolium tetrafluoroborate]
Details | refractive index
288.81 K | 1.4343
290.85 K | 1.4338
292.91 K | 1.4332
294.95 K | 1.4327
297 K | 1.4321
297.74 K | 1.4319
299.06 K | 1.4316
299.31 K | 1.4315
300.78 K | 1.4312
301.11 K | 1.431
302.3 K | 1.4307
303.2 K | 1.4304
303.84 K | 1.4303
305.32 K | 1.4299
306.84 K | 1.4295
308.35 K | 1.429

CCCCCCCO [heptan-1-ol]
Details | refractive index
297.43 K | 1.4217
298.87 K | 1.4211
300.46 K | 1.4205
301.93 K | 1.4199
303.44 K | 1.4193
305.08 K | 1.4187
306.72 K | 1.418
308.35 K | 1.4174

CCCC(C)O (stereo not given) [pentan-2-ol]
Details | refractive index
289.22 K | 1.407
292.33 K | 1.4058
295.95 K | 1.4042
299.54 K | 1.4027
302.62 K | 1.4013
306.2 K | 1.3997
